This is an account of results in PubChem BioAssay (NCI).

Holding throughout (experiment): NCI-60 cell line screen, 48 h
Experiment [1] relates to 786-0 renal.
Experiment [2] relates to COLO 205 colon.
The test system of experiment [3] is HS 578T breast.
Experiment [4] deals with MDA-MB-231 breast.
Experiment [5] deals with NCI/ADR-RES ovarian.
Experiment [6] relates to OVCAR-5 ovarian.
In experiment [7] the test system is RPMI-8226 leukemia.
Experiment [8] relates to SK-MEL-28 melanoma.
The subject of experiment [9] is SK-MEL-5 melanoma.
Experiment [10] relates to SW-620 colon.

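In this assay, cells in 96-well plates receive the compound at five concentrations for 48 hours. Endpoints are linearly interpolated between the surrounding concentrations. GI50 marks 50% less growth. TGI marks complete inhibition of growth.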 Some results are limits rather than exact numbers.

Regarding `Cc1ccccc1-n1c(/C=C\c2ccccn2)nc2ccccc2c1=O`, the GI50 in experiment [1] was 20.6 µM; in experiment [2] it was 9.65 µM; in [3], 15.5 µM; in experiment [4], 4.69 µM; in [5], 7.16 µM; in experiment [6] it was 19.5 µM. The GI50 is 2.51 µM in experiment [7], 18.4 µM in experiment [8], 9.61 µM in experiment [9] and 13.2 µM in experiment [10]. Moreover, the TGI in experiment [1] was 64.4 µM; in [2], 28.5 µM; in experiment [3] it was above 100 µM; in experiment [4], 59.2 µM; in experiment [5], 79.5 µM; in experiment [6], above 100 µM. Further, the TGI came out at 15 µM in experiment [7], 39.8 µM in experiment [8], 22.6 µM in [9] and 56.2 µM in experiment [10].
On to `CC1CCCN(CC(O)CN2CCCc3ccccc32)C1` (stereo unspecified), for which the TGI in [1], in [2], in experiment [3], in experiment [4], in [5] and in experiment [6] was above 100 µM throughout. The TGI in [7], in experiment [8], in [9] and in [10] was above 100 µM throughout.
For the molecule `COc1ccc2c(c1OC)-c1c(c3ccc([N+](=O)[O-])cc3c(=O)n1CCCN=[N+]=[N-])C2=O`, the GI50 in [1] was 3.44 µM; in experiment [2], above 100 µM; in experiment [3], above 100 µM; in [4], above 100 µM; in [5] it was 12.2 µM; in experiment [6], above 100 µM. Also, the GI50 is 5.18 µM in [7], above 100 µM in experiment [8], 12.2 µM in experiment [9] and 23.1 µM in experiment [10]. The TGI was 15.8 µM in [1]; above 100 µM in experiment [2]; above 100 µM in experiment [3]; above 100 µM in experiment [4]; above 100 µM in experiment [5]; above 100 µM in experiment [6]. In addition, the TGI in experiment [7], in experiment [8], in experiment [9] and in experiment [10] was above 100 µM throughout.
Turning to `O=C(O)c1ccc(S(=O)(=O)N=Nc2c(O)[nH]c3ccccc23)cc1`, the TGI in [1], in experiment [2], in experiment [3], in experiment [4], in experiment [5] and in experiment [6] was above 100 µM in each case. Also, the TGI in experiment [7], in [8], in experiment [9] and in experiment [10] was above 100 µM each time.
Turning to `Cc1[nH]nc2c1N=C(c1ccccc1F)c1cc(C#N)ccc1N2`, the GI50 was 0.801 µM in experiment [1]; 0.134 µM in experiment [2]; 0.122 µM in experiment [3]; 2.59 µM in [4]; 4.72 µM in experiment [5]; 7.12 µM in experiment [6]. The GI50 in experiment [7] is 7.4 µM; in [8], 6.5 µM; in [9], 0.0971 µM. For the same molecule, the TGI in experiment [1] is 7.27 µM; in [2], 5.34 µM; in experiment [3], 3.83 µM; in experiment [4], 11.7 µM; in [5], above 25 µM; in experiment [6], 18.8 µM. Further, the figures for the TGI in [7], in experiment [8] and in experiment [9] were 19.5 µM, above 23.5 µM and 9.39 µM, respectively.
For `O=C(Nc1cccc2cccnc12)c1ccc(N2C(=O)[C@@H]3[C@H](C2=O)[C@@H]2C=C[C@H]3C2)cc1`, the GI50 in experiment [1] is above 74.2 µM; in experiment [2] it was 37.6 µM; in experiment [3], 40.8 µM; in experiment [4] it was 33.2 µM; in experiment [5], 17.6 µM; in experiment [6], 55.9 µM. Moreover, the GI50 in experiment [7] is 23.2 µM; in experiment [8], 35.2 µM; in [9], 13.4 µM; in [10], 42 µM. Moreover, the TGI was above 100 µM in [1]; above 100 µM in experiment [2]; above 100 µM in [3]; above 100 µM in experiment [4]; 81.2 µM in experiment [5]; above 100 µM in [6]. Also, the TGI in experiment [7] was above 88.2 µM; in experiment [8], above 100 µM; in experiment [9], 29.6 µM; in experiment [10], above 100 µM.
Take `CCn1c(-c2nonc2N)nc2c(C#CC(C)(C)O)nc(O[C@@H](CN)c3ccccc3)cc21`: the GI50 in experiment [1] is 0.16 µM; in [2], 0.123 µM; in experiment [3], 0.0453 µM; in experiment [4], 0.528 µM; in experiment [5], 6.38 µM; in experiment [6] it was 0.859 µM. In addition, the GI50 in experiment [7] was 0.645 µM; in [8], 0.399 µM; in experiment [9], 0.413 µM; in experiment [10] it was 0.119 µM. In addition, the TGI in experiment [1] turned out to be 2.49 µM; in experiment [2], 0.646 µM; in experiment [3], 1.09 µM; in experiment [4], 2.65 µM; in [5] it was 25 µM; in experiment [6], 15.8 µM. Further, the TGI was 2.7 µM in experiment [7], 1.19 µM in [8], 0.892 µM in [9] and 3.17 µM in experiment [10].
As to `COc1ccc(NC(=O)c2sc3nc(C)c(C(O)c4ccc(OC)cc4)cc3c2N)cc1` (stereo unspecified), the GI50 in [1] is 3.35 µM; in experiment [2], 1.57 µM; in experiment [3] it was 0.821 µM; in experiment [4], 2.06 µM; in experiment [5] it was 1.28 µM; in [6], 1.87 µM. Moreover, the GI50 in [7] is 1.62 µM; in experiment [8] it was 6.22 µM; in [9], 0.569 µM; in experiment [10], 1.26 µM. For the same molecule, the TGI in experiment [1] is above 50 µM; in experiment [2] it was 31.6 µM; in [3], 4.09 µM; in experiment [4], above 50 µM; in [5] it was 4.41 µM; in experiment [6], above 50 µM. The TGI is above 50 µM in experiment [7], above 50 µM in experiment [8], 6.82 µM in [9] and above 50 µM in [10].
Take `BrC(Br)(Br)c1cnc2ccccc2n1`: the GI50 was 2.02 µM in experiment [1]; 0.735 µM in experiment [2]; 2.47 µM in [3]; 1.39 µM in experiment [4]; 2.3 µM in [5]; 2.77 µM in [6]. Moreover, the GI50 in experiment [7] is 2.18 µM; in experiment [8], 1.85 µM; in experiment [9], 2.32 µM. For the same molecule, the TGI in [1] was found to be 5 µM; in experiment [2], 2.13 µM; in experiment [3] it was 7 µM; in experiment [4], 3.22 µM; in [5], 7.36 µM; in experiment [6] it was 7.45 µM. The values for the TGI in experiment [7], in [8] and in experiment [9] were 6.02 µM, 4.24 µM and 7.54 µM, respectively.
For the molecule `CCOC(=O)N1C/C(=C/c2ccc(OC)cc2)C(=O)/C(=C/c2ccc(OC)cc2)C1`, the GI50 in experiment [1] is 1.79 µM; in [2], 2.18 µM; in experiment [3], 2.85 µM; in [4], 2.38 µM; in experiment [5], 3.35 µM; in experiment [6], 4.23 µM. The GI50 was 0.211 µM in [7], 2.72 µM in [8], 1.6 µM in [9] and 1.37 µM in [10]. Moreover, the TGI in [1] is 3.4 µM; in [2] it was 5.28 µM; in [3], above 100 µM; in [4], 6.48 µM; in experiment [5], above 100 µM; in experiment [6], 21.6 µM. Further, the TGI in [7] was found to be 1.6 µM; in experiment [8], 7.84 µM; in experiment [9], 3.17 µM; in experiment [10], 4.4 µM.
Regarding `CCCCN(CCCC)CC(C)(C)C(O)c1ccc(OC)c2ccccc12` (stereo unspecified), the GI50 in experiment [1] is 10 µM; in experiment [2], 3.1 µM; in experiment [3] it was 4.55 µM; in experiment [4], 6.76 µM; in experiment [5], 6.13 µM; in experiment [6], 2.4 µM. The GI50 is 2.5 µM in experiment [7], 11.3 µM in experiment [8], 2 µM in experiment [9] and 2.54 µM in experiment [10]. Further, the TGI was determined as 28 µM in experiment [1]; 15.8 µM in experiment [2]; 27 µM in experiment [3]; 21.9 µM in experiment [4]; 23.8 µM in experiment [5]; 16.4 µM in experiment [6]. Also, the TGI was determined as 5.93 µM in [7], 24.8 µM in experiment [8], 4.95 µM in experiment [9] and 14.5 µM in experiment [10].
Consider `C=C1C(=O)O[C@H]2[C@H]1[C@H](OC(=O)/C(C)=C\C)C[C@]1(CO1)[C@@H]1[C@H](OC(C)=O)C=C(C)[C@]21O`, for which the TGI in [1] was 23.5 µM; in [2], 19.4 µM; in experiment [3], above 100 µM; in experiment [4] it was 39.5 µM; in [5], 57.4 µM; in [6], above 59.1 µM. Moreover, the TGI in experiment [7] stood at 15.2 µM; in [8], 30.6 µM; in [9], 37.2 µM; in [10] it was 27.9 µM.
With `C=CC[Se]C(=O)Cc1c(C)n(C(=O)c2ccc(Cl)cc2)c2ccc(OC)cc12`, the GI50 in [1] is 1.73 µM; in experiment [2], 2.14 µM; in [3] it was 2.25 µM; in experiment [4], 1.66 µM; in experiment [5] it was 1.94 µM; in experiment [6], 1.72 µM. The GI50 is 2.28 µM in experiment [7], 1.69 µM in experiment [8], 1.73 µM in experiment [9] and 1.99 µM in [10]. The TGI in experiment [1] was 3.19 µM; in [2], 4.38 µM; in experiment [3], 7.33 µM; in experiment [4], 3.21 µM; in [5], 3.89 µM; in [6], 3.21 µM. In addition, the TGI in [7] came to 5.86 µM; in experiment [8] it was 3.12 µM; in experiment [9] it was 3.13 µM; in experiment [10], 4.42 µM.
For the molecule `CC12CCc3ccccc3C1=Nc1ccccc12` (stereo unspecified), the TGI in experiment [1] was above 100 µM; in [2] it was above 100 µM; in [3] it was 46.7 µM; in experiment [4], above 100 µM; in experiment [5], 64.6 µM; in experiment [6], above 100 µM. For the same molecule, the TGI in [8] was above 100 µM; in [9] it was 30.4 µM; in experiment [10], above 100 µM.
On to `COc1ccc(NC(=O)Nc2ccc(Nc3nc(C)cc(Nc4ccc(C)cc4)n3)cc2)cc1`, for which the GI50 was 0.253 µM in experiment [1]; 1.94 µM in experiment [2]; 2.22 µM in experiment [3]; 0.894 µM in [4]; 1.33 µM in [5]; 1.72 µM in [6]. The GI50 in experiment [7] is 0.71 µM; in experiment [8] it was 1.51 µM; in [9], 1.6 µM. Further, the TGI in experiment [1] is 0.702 µM; in experiment [2] it was 3.62 µM; in experiment [3], 5.4 µM; in experiment [4], 2.46 µM; in experiment [5], 3.75 µM; in experiment [6] it was 3.22 µM. In addition, the TGI in [7] was found to be 1.65 µM; in experiment [8], 3.14 µM; in experiment [9] it was 2.96 µM.
On to `CCOC(=O)CNC(=O)CCCn1c(=O)c2c3ccccc3n(C)c2n2nnc(-c3ccccc3)c12`, for which the GI50 in experiment [1] was 5.13 µM; in [2], above 50 µM; in experiment [3] it was 4.51 µM; in [4] it was 14.7 µM; in [5], above 50 µM; in experiment [6], 27.7 µM. The GI50 was 10.7 µM in experiment [7], above 50 µM in experiment [8] and above 50 µM in experiment [10]. Moreover, the TGI in experiment [1] was 17.4 µM; in [2], above 50 µM; in experiment [3] it was above 50 µM; in [4], 31 µM; in experiment [5] it was above 50 µM; in experiment [6] it was above 50 µM. Moreover, the values for the TGI in experiment [7], in experiment [8] and in [10] were 33.9 µM, above 50 µM and above 50 µM, respectively.
